Values quoted from earlier work as cited in patent publication US20040038984A1, “Composition for male & female sexual arousal” (priority 2002, published 2004).

Details: following oral administration

- time of peak plasma concentrations: 1 to 2 h
Structure (SMILES): Cn1cc([S+](C)[O-])c(=O)c2ccc(F)cc21 (stereo not shown) [flosequinan]
